According to patent publication US8765748B2, “Indazolyl, benzimidazolyl, benzotriazolyl substituted indolinone derivatives as kinase inhibitors useful in the treatment of cancer” (University Health Network, priority 2007, dated 2014):

Assays:
[1] = test system: 184A1 immortalized breast cell line; assay: Cell growth inhibition, SRB assay, extended panel; type: cell-based; details: read-out: GI50 Range, 184A1
Description: (§1) Breast cancer cells (MCF-7, MDA-MB-468, HCC1954), colon cancer cells (SW620) and lung cancer cells (A549), together with human mammary epithelial primary cells (HMEC), were seeded (1000 to 4000 per 80 μl per well depending on the cell growth rate) into 96 well plates, 24 hours before compound overlay. Compounds were prepared as 10 mM stock solutions in 100% DMSO which were diluted with DMEM (Dulbecco's Modified Eagle's Medium) cell growth Medium (Invitrogen, Burlington, ON, Canada) containing 10% FBS (Fetal Bovine Serum) to concentrations ranging from 50 nM to 250 μM. Aliquots (20 μl) from each concentration were overlaid to 80 μl of the pre-seeded cells in the 96 well plates to make final concentrations of 10 nM to 50 μM. The cells were cultured for 5 days before the Sulforhodamine B assay (SRB) was performed to determine the compound's cell growth inhibition activity.
(§2) Sulforhodamine B (purchased from Sigma, Oakville, ON, Canada) is a water-soluble dye that binds to the basic amino acids of the cellular proteins. Thus, colorimetric measurement of the bound dye provides an estimate of the total protein mass that is related to the cell number. the cells are fixed in situ by gently aspirating off the culture media and adding 50 μl ice cold 10% Tri-chloroacetic Acid (TCA) per well and incubate at 4° C. for 30-60 min, The plates are washed with water five times and allowed to air dry for 5 min. Addition of 50 μl 0.4% (w/v) SRB solution in 1% (v/v) acetic acid to each well and incubatation for 30 min at RT completes the staining reaction. Following staining, plates are washed four times with 1% acetic acid to remove unbound dye and then allowed to air dry for 5 min. The stain is solubilized with 100 μl of 10 mM Tris pH10.5 per well. Absorbance is read at 570 nm.
(§3) The percentage (%) of relative growth inhibition was calculated by comparing to DMSO treated only cells (100%). GI50's were determined for compounds with cytotoxic activity. The GI50 was calculated using GraphPad PRISM software (GraphPad Software, Inc., San Diego, Calif., USA).
(§4) In addition to the cell lines tested as described above, selected compounds have been assayed against an extended panel. […] The sulforhodamine B assay (SRB) described above was use to assay test compounds against the extended panel (Table 9).

518A2 melanoma cell line = assay: Cell growth inhibition, SRB assay, extended panel; type: cell-based; details: Homo sapiens, read-out: GI50 Range, 518A2
Description: as §1, §2, §3, §4

[2] = test system: A172 brain cancer cell line; assay: Cell growth inhibition, SRB assay, extended panel; type: cell-based; details: Homo sapiens, A 172, read-out: GI50 Range, A172
Description: as §1, §2, §3, §4

[3] = test system: BT474 breast cancer cell line; assay: Cell growth inhibition, SRB assay, extended panel; type: cell-based; details: Homo sapiens, BT-474, read-out: GI50 Range, BT474
Description: as §1, §2, §3, §4

[4] = test system: Colo 205 colon cancer cell line; assay: Cell growth inhibition, SRB assay, extended panel; type: cell-based; details: Homo sapiens, read-out: GI50 Range, Colo 205
Description: as §1, §2, §3, §4

[5] = test system: H358 lung cancer cell line; assay: Cell growth inhibition, SRB assay, extended panel; type: cell-based; details: Homo sapiens, NCI-H358, read-out: GI50 Range, H358
Description: as §1, §2, §3, §4

[6] = test system: HCT-15 colon cancer cell line; assay: Cell growth inhibition, SRB assay, extended panel; type: cell-based; details: Homo sapiens, read-out: GI50 Range, HCT-15
Description: as §1, §2, §3, §4

[7] = test system: HCT116+/+ colon cancer cell line; assay: Cell growth inhibition, SRB assay, extended panel; type: cell-based; details: Homo sapiens, HCT-116, read-out: GI50 Range, HCT116+/+
Description: as §1, §2, §3, §4

[8] = test system: HCT116+/− colon cancer cell line; assay: Cell growth inhibition, SRB assay, extended panel; type: cell-based; details: Homo sapiens, HCT-116, read-out: GI50 Range, HCT116+/−
Description: as §1, §2, §3, §4

[9] = test system: HS578T breast cancer cell line; assay: Cell growth inhibition, SRB assay, extended panel; type: cell-based; details: Homo sapiens, Hs-578T, read-out: GI50 Range, HS578T
Description: as §1, §2, §3, §4

[10] = test system: Hs683 brain cancer cell line; assay: Cell growth inhibition, SRB assay, extended panel; type: cell-based; details: Homo sapiens, Hs 683, read-out: GI50 Range, Hs683
Description: as §1, §2, §3, §4

[11] = test system: MDA-MB-231 breast cancer cell line; assay: Cell growth inhibition, SRB assay, extended panel; type: cell-based; details: Homo sapiens, read-out: GI50 Range, MDA-MB-231
Description: as §1, §2, §3, §4

[12] = test system: OVCAR-3 ovarian cancer cell line; assay: Cell growth inhibition, SRB assay, extended panel; type: cell-based; details: Homo sapiens, read-out: GI50 Range, OVCAR-3
Description: as §1, §2, §3, §4

[13] = test system: PC-3 prostate cancer cell line; assay: Cell growth inhibition, SRB assay, extended panel; type: cell-based; details: read-out: GI50 Range, PC-3
Description: as §1, §2, §3, §4

[14] = test system: SK-N-SH brain cancer cell line; assay: Cell growth inhibition, SRB assay, extended panel; type: cell-based; details: Homo sapiens, read-out: GI50 Range, SK-N-SH
Description: as §1, §2, §3, §4

[15] = test system: SK-OV-3 ovarian cancer cell line; assay: Cell growth inhibition, SRB assay, extended panel; type: cell-based; details: Homo sapiens, read-out: GI50 Range, SK-OV-3
Description: as §1, §2, §3, §4

[16] = test system: SKBR3 breast cancer cell line; assay: Cell growth inhibition, SRB assay, extended panel; type: cell-based; details: Homo sapiens, SK-BR-3, read-out: GI50 Range, SKBR3
Description: as §1, §2, §3, §4

[17] = test system: SW 626 ovarian cancer cell line; assay: Cell growth inhibition, SRB assay, extended panel; type: cell-based; details: Homo sapiens, SW626, read-out: GI50 Range, SW 626
Description: as §1, §2, §3, §4

[18] = test system: T47 D breast cancer cell line; assay: Cell growth inhibition, SRB assay, extended panel; type: cell-based; details: Homo sapiens, T47D; SRB, extended panel; read-out: GI50 Range, T47 D
Description: as §1, §2, §3, §4

KDR = target: T1, KDR (Homo sapiens, UniProt P35968); assay: Millipore kinase assay, radiolabelled phosphopeptide filter binding, IC50 estimate; type: biochemical; details: estimated from inhibition at three compound concentrations; ATP at the Km
T1 construct: purchased Millipore (assay service)
Description: Kinase assays at Millipore were performed using a radiolabelled phosphopeptide filter binding detection system, in duplicate, at each compound concentration. The ATP substrate concentration in the reactions was at the Km for each enzyme.
To allow for a more direct comparison of compound inhibition, an IC50 value was estimated from the inhibition determined at three compound concentrations. Several assumptions were made to allow this calculation using a 4 parameter non linear curve fit model, including full inhibition set at 100%, no inhibition set to 0%, and a curve fit parameter set at 1. The inflection point was reported as the estimated IC50.

T1 sequence (P35968 20-1356): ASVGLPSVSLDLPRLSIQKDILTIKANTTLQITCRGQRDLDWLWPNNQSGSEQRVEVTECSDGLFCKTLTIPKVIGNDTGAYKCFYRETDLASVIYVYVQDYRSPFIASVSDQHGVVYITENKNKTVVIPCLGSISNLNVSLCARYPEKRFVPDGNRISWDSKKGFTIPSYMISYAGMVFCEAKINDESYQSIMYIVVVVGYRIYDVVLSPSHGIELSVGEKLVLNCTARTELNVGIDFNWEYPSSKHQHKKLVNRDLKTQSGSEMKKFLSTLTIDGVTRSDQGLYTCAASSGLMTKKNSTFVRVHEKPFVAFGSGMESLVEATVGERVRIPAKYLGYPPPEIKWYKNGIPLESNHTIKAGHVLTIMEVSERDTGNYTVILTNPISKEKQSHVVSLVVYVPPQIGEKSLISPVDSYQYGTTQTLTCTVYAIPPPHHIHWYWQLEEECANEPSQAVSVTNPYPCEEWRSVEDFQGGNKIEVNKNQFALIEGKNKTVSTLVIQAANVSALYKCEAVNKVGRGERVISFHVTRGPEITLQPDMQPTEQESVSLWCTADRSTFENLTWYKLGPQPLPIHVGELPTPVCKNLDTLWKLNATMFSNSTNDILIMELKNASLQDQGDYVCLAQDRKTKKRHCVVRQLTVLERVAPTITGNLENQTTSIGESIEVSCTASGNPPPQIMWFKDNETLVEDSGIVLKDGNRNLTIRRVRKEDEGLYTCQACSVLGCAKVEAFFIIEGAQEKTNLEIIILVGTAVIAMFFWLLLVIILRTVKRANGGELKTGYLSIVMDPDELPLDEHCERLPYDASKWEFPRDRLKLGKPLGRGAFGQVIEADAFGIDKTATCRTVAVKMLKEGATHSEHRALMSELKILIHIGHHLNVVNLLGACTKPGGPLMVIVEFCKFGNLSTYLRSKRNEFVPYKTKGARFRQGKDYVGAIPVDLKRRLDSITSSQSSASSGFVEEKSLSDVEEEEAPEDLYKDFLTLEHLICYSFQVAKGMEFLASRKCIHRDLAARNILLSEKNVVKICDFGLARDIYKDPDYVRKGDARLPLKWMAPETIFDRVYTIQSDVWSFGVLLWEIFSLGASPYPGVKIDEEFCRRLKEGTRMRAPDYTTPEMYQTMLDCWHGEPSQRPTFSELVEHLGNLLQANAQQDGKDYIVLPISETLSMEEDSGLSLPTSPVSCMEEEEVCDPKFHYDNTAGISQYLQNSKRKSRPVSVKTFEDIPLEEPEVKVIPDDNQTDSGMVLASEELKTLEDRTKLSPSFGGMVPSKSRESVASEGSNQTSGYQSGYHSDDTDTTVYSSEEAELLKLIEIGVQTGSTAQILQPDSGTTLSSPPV

SMILES | GI50 [1] | GI50 (518A2 melanoma cell line) | GI50 [2] | GI50 [3] | GI50 [4] | GI50 [5] | GI50 [6] | GI50 [7] | GI50 [8] | GI50 [9] | GI50 [10] | GI50 [11] | GI50 [12] | GI50 [13] | GI50 [14] | GI50 [15] | GI50 [16] | GI50 [17] | GI50 [18] | IC50 (KDR)
CN1CCN(c2ccc(/C=C/c3n[nH]c4cc(C=C5C(=O)Nc6ccccc65)ccc34)cn2)CC1 (mixture of isomers) [Example A108, (E and Z)-3-((3-((E)-2-(6-(4-methylpiperazin-1-yl)pyridin-3-yl)vinyl)-1H-indazol-6-yl)methylene)indolin-2-one] | < 5 µM | < 5 µM | < 5 µM | < 5 µM | < 5 µM | < 5 µM | < 5 µM | < 5 µM | < 5 µM | < 5 µM | < 5 µM | < 5 µM | < 5 µM | < 5 µM | < 5 µM | < 5 µM | < 5 µM | < 5 µM | < 5 µM | 
O=C1Nc2ncc(Br)cc2C1=Cc1ccc2c(/C=C/c3ccncc3)n[nH]c2c1 (mixture of isomers) [Example A109, (E and Z)-5-bromo-3-((3-((E)-2-(pyridin-4-yl)vinyl)-1H-indazol-6-yl)methyl-ene)-1H-pyrrolo[2,3-b]pyridin-2(3H)-one] | < 5 µM | < 5 µM | < 5 µM | 5 to 20 µM | < 5 µM | < 5 µM | < 5 µM | < 5 µM | < 5 µM | < 5 µM | < 5 µM | < 5 µM | < 5 µM | < 5 µM | < 5 µM | 5 to 20 µM | > 50 µM | 5 to 20 µM | < 5 µM | 
COc1ccc2c(c1)C(=Cc1ccc3c(-c4ccc(N5CCN(C)CC5)nc4)n[nH]c3c1)C(=O)N2 (mixture of isomers) [Example A97, (E and Z)-5-methoxy-3-((3-(6-(4-methylpiperazin-1-yl)pyridin-3-yl)-1H-indazol-6-yl)methylene)indolin-2-one] | < 5 µM |  |  | < 5 µM | < 5 µM |  |  | < 5 µM | < 5 µM | < 5 µM |  | < 5 µM |  |  |  |  | < 5 µM |  | < 5 µM | < 5 µM
O=C1Nc2ccccc2C1=Cc1ccc2c(/C=C/c3ccccn3)n[nH]c2c1 (mixture of isomers) [Example A41, (E and Z)-3-((3-((E)-2-(pyridin-2-yl)vinyl)-1H-indazol-6-yl)methylene)indolin-2-one] | 20 to 50 µM | < 5 µM | < 5 µM | > 50 µM | < 5 µM | < 5 µM | < 5 µM | > 50 µM | > 50 µM | 5 to 20 µM | < 5 µM | 5 to 20 µM | > 50 µM | 20 to 50 µM | < 5 µM | > 50 µM | < 5 µM | > 50 µM | < 5 µM | < 5 µM
